According to patent EP0567613B1, “COMPOSITIONS FOR THERAPY AND PREVENTION OF CANCER” (The Government of the United States of America, as …, priority 1991, dated 1993):

Legend:
HL-60 = assay: Cell proliferation (cell number); type: cell-based, human
Method: The adherent cells were detached with trypsin/EDTA and the cell number determined using a hemocytometer. Data points indicate the mean ± S.D. of duplicates from two independent experiments. The cell lines were obtained from the American Type Culture Collection and maintained in RPMI 1640 (HL-60) or Dulbecco's Modified Eagle's Medium (10T1/2) supplemented with 10% heat inactivated fetal calf serum (Gibco Laboratories), 2 mM L-Glutamine, and antibiotics.

Prostatic PC3 Cells = assay: Tumorigenicity of pretreated cells in nude mice; type: in vivo, athymic nude mice; conditions: cells pretreated 1 week at 0.8 mg/ml, 8 weeks later
Description: PC3 cells were pretreated for 1 week in culture and then injected (2 x 10^5 cells/animal) s.c. into 4-5 week-old female athymic nude mice. […] The data in Table 4 are a summary of two independent experiments.

With `O=C([O-])Cc1ccccc1.[Na+]` [NaPA, sodium phenylacetate] the inhibition at 800 µg/mL (HL-60; Homo sapiens, read-out: % Inhibition by NaPA 0.8 mg/ml, HL-60, 0.8 mg/ml) was ≤ 40%, the cell proliferation (HL-60; treated for four days) was “dose dependent inhibition of cell proliferation” and the Incidence (Prostatic PC3 Cells; 2 x 10^5 cells/animal s.c.) was 1/7. The Diameter (Prostatic PC3 Cells) was 2 mm ± S.D and the Weight (Prostatic PC3 Cells) was 50 mg.
